Results published in the NIST ThermoML archive (doi:10.1016/j.jct.2013.05.009).
Numbers after ± are expanded uncertainties.

Assay: xn = mol fraction of the nth substance listed
Conditions: 101 kPa, Liquid; for mass density: Vibrating tube method; for speed of sound: fixed-path interferometer

CC(C)CC(C)(C)C [2,2,4-trimethylpentane] + CCCCO
Conditions | mass density, 298.15 K [kg/m3] | mass density, 308.15 K [kg/m3] | mass density, 318.15 K [kg/m3] | mass density, 328.15 K [kg/m3] | speed of sound, 298.15 K [m/s] | speed of sound, 308.15 K [m/s] | speed of sound, 318.15 K [m/s] | speed of sound, 328.15 K [m/s]
x1 = 0.03101 | 799.41 ± 0.15 | 791.7 ± 0.15 | 783.95 ± 0.15 | 776.09 ± 0.16 | 1229.7 ± 1.2 | 1195.8 ± 1.2 | 1162.1 ± 1.2 | 1128.6 ± 1.2
x1 = 0.07555 | 790.82 ± 0.15 | 783.03 ± 0.15 | 775.22 ± 0.16 | 767.29 ± 0.16 | 1216 ± 1.2 | 1181.3 ± 1.2 | 1146.9 ± 1.2 | 1112.6 ± 1.2
x1 = 0.1426 | 778.75 ± 0.16 | 770.87 ± 0.16 | 762.95 ± 0.16 | 754.91 ± 0.16 | 1196.8 ± 1.2 | 1161.1 ± 1.2 | 1125.6 ± 1.2 | 1090.3 ± 1.2
x1 = 0.2049 | 768.51 ± 0.16 | 760.53 ± 0.16 | 752.52 ± 0.16 | 744.39 ± 0.16 | 1180.8 ± 1.2 | 1144.2 ± 1.2 | 1107.8 ± 1.2 | 1071.7 ± 1.2
x1 = 0.2621 | 759.76 ± 0.16 | 751.67 ± 0.16 | 743.61 ± 0.16 | 735.41 ± 0.17 | 1167.3 ± 1.2 | 1130 ± 1.2 | 1092.5 ± 1.2 | 1056.1 ± 1.2
x1 = 0.3176 | 751.87 ± 0.16 | 743.75 ± 0.16 | 735.6 ± 0.17 | 727.34 ± 0.17 | 1155.5 ± 1.2 | 1117.5 ± 1.2 | 1079.8 ± 1.2 | 1042.5 ± 1.2
x1 = 0.3932 | 741.94 ± 0.16 | 733.74 ± 0.17 | 725.51 ± 0.17 | 717.19 ± 0.17 | 1141.1 ± 1.2 | 1102.3 ± 1.2 | 1063.9 ± 1.2 | 1025.9 ± 1.2
x1 = 0.4553 | 734.44 ± 0.17 | 726.18 ± 0.17 | 717.92 ± 0.17 | 709.56 ± 0.17 | 1130.7 ± 1.2 | 1091.4 ± 1.2 | 1052.6 ± 1.2 | 1014.1 ± 1.2
x1 = 0.5458 | 724.43 ± 0.17 | 716.13 ± 0.17 | 707.81 ± 0.17 | 699.42 ± 0.18 | 1117.4 ± 1.2 | 1077.5 ± 1.2 | 1038.1 ± 1.2 | 999.2 ± 1.2
x1 = 0.6067 | 718.27 ± 0.17 | 709.93 ± 0.17 | 701.6 ± 0.17 | 693.2 ± 0.18 | 1109.8 ± 1.2 | 1069.5 ± 1.2 | 1029.7 ± 1.2 | 990.4 ± 1.2
x1 = 0.6787 | 711.51 ± 0.17 | 703.15 ± 0.17 | 694.8 ± 0.18 | 686.39 ± 0.18 | 1101.9 ± 1.2 | 1061.3 ± 1.2 | 1021.1 ± 1.2 | 981.6 ± 1.2
x1 = 0.742 | 706.01 ± 0.17 | 697.65 ± 0.17 | 689.3 ± 0.18 | 680.9 ± 0.18 | 1095.9 ± 1.2 | 1055.1 ± 1.2 | 1014.7 ± 1.2 | 974.8 ± 1.2
x1 = 0.8095 | 700.58 ± 0.17 | 692.21 ± 0.18 | 683.87 ± 0.18 | 675.5 ± 0.18 | 1090.6 ± 1.2 | 1049.5 ± 1.2 | 1008.8 ± 1.2 | 968.8 ± 1.2
x1 = 0.8683 | 696.2 ± 0.17 | 687.84 ± 0.18 | 679.5 ± 0.18 | 671.13 ± 0.18 | 1086.7 ± 1.2 | 1045.4 ± 1.2 | 1004.6 ± 1.2 | 964.3 ± 1.2
x1 = 0.9078 | 693.42 ± 0.18 | 685.07 ± 0.18 | 676.75 ± 0.18 | 668.4 ± 0.18 | 1084.5 ± 1.2 | 1043.1 ± 1.2 | 1002.2 ± 1.2 | 961.8 ± 1.2
x1 = 0.9422 | 691.1 ± 0.18 | 682.76 ± 0.18 | 674.47 ± 0.18 | 666.16 ± 0.18 | 1082.9 ± 1.2 | 1041.5 ± 1.2 | 1000.6 ± 1.2 | 960.2 ± 1.2
x1 = 0.9619 | 689.83 ± 0.18 | 681.51 ± 0.18 | 673.25 ± 0.18 | 664.98 ± 0.18 | 1082.3 ± 1.2 | 1040.7 ± 1.2 | 1000 ± 1.2 | 959.7 ± 1.2
x1 = 0.981 | 688.66 ± 0.18 | 680.37 ± 0.18 | 672.16 ± 0.18 | 663.97 ± 0.18 | 1082.1 ± 1.2 | 1040.9 ± 1.2 | 1000.1 ± 1.2 | 959.7 ± 1.2
x1 = 1 | 687.68 ± 0.18 | 679.45 ± 0.18 | 671.3 ± 0.18 | 663.17 ± 0.18 | 1082.7 ± 1.2 | 1041.1 ± 1.2 | 1000.1 ± 1.2 | 959.4 ± 1.2

CCCCO [butan-1-ol] + Cc1ccccc1
Conditions | mass density, 298.15 K [kg/m3] | mass density, 308.15 K [kg/m3] | mass density, 318.15 K [kg/m3] | mass density, 328.15 K [kg/m3] | speed of sound, 298.15 K [m/s] | speed of sound, 308.15 K [m/s] | speed of sound, 318.15 K [m/s] | speed of sound, 328.15 K [m/s]
x2 = 0 | 805.71 ± 0.15 | 798.05 ± 0.15 | 790.36 ± 0.15 | 782.56 ± 0.15 | 1240 ± 1.2 | 1206.6 ± 1.2 | 1173.4 ± 1.2 | 1140.4 ± 1.2
x2 = 0.02621 | 807.5 ± 0.15 | 799.76 ± 0.15 | 791.98 ± 0.15 | 784.09 ± 0.15 | 1241.1 ± 1.2 | 1207.3 ± 1.2 | 1173.8 ± 1.2 | 1140.4 ± 1.2
x2 = 0.06979 | 810.42 ± 0.15 | 802.54 ± 0.15 | 794.62 ± 0.15 | 786.6 ± 0.15 | 1242.9 ± 1.2 | 1208.6 ± 1.2 | 1174.5 ± 1.2 | 1140.6 ± 1.2
x2 = 0.1334 | 814.51 ± 0.15 | 806.45 ± 0.15 | 798.34 ± 0.15 | 790.12 ± 0.15 | 1245.4 ± 1.2 | 1210.3 ± 1.2 | 1175.4 ± 1.2 | 1140.8 ± 1.2
x2 = 0.1909 | 818.08 ± 0.14 | 809.86 ± 0.15 | 801.59 ± 0.15 | 793.21 ± 0.15 | 1247.6 ± 1.2 | 1211.8 ± 1.2 | 1176.3 ± 1.2 | 1141 ± 1.2
x2 = 0.2606 | 822.26 ± 0.14 | 813.87 ± 0.15 | 805.42 ± 0.15 | 796.86 ± 0.15 | 1250.1 ± 1.2 | 1213.6 ± 1.2 | 1177.4 ± 1.2 | 1141.5 ± 1.2
x2 = 0.3391 | 826.8 ± 0.14 | 818.22 ± 0.14 | 809.59 ± 0.15 | 800.85 ± 0.15 | 1252.9 ± 1.2 | 1215.6 ± 1.2 | 1178.6 ± 1.2 | 1142 ± 1.2
x2 = 0.4066 | 830.59 ± 0.14 | 821.86 ± 0.14 | 813.1 ± 0.15 | 804.22 ± 0.15 | 1255.4 ± 1.2 | 1217.5 ± 1.2 | 1180 ± 1.2 | 1142.8 ± 1.2
x2 = 0.473 | 834.2 ± 0.14 | 825.36 ± 0.14 | 816.47 ± 0.14 | 807.48 ± 0.15 | 1258 ± 1.2 | 1219.6 ± 1.2 | 1181.6 ± 1.2 | 1144.1 ± 1.2
x2 = 0.5406 | 837.84 ± 0.14 | 828.87 ± 0.14 | 819.88 ± 0.14 | 810.78 ± 0.15 | 1261 ± 1.2 | 1222 ± 1.2 | 1183.7 ± 1.2 | 1145.7 ± 1.2
x2 = 0.6007 | 841.01 ± 0.14 | 831.96 ± 0.14 | 822.88 ± 0.14 | 813.7 ± 0.15 | 1263.9 ± 1.2 | 1224.6 ± 1.2 | 1185.9 ± 1.2 | 1147.6 ± 1.2
x2 = 0.6711 | 844.68 ± 0.14 | 835.54 ± 0.14 | 826.37 ± 0.14 | 817.12 ± 0.14 | 1267.8 ± 1.2 | 1228.2 ± 1.2 | 1189.1 ± 1.2 | 1150.5 ± 1.2
x2 = 0.7376 | 848.14 ± 0.14 | 838.93 ± 0.14 | 829.68 ± 0.14 | 820.37 ± 0.14 | 1272.3 ± 1.2 | 1232.3 ± 1.2 | 1192.8 ± 1.2 | 1154 ± 1.2
x2 = 0.7967 | 851.2 ± 0.14 | 841.92 ± 0.14 | 832.63 ± 0.14 | 823.27 ± 0.14 | 1277 ± 1.2 | 1236.8 ± 1.2 | 1197.1 ± 1.2 | 1158 ± 1.2
x2 = 0.8691 | 854.94 ± 0.14 | 845.61 ± 0.14 | 836.27 ± 0.14 | 826.88 ± 0.14 | 1284.3 ± 1.2 | 1243.8 ± 1.2 | 1203.8 ± 1.2 | 1164.4 ± 1.2
x2 = 0.9327 | 858.35 ± 0.13 | 848.98 ± 0.14 | 839.62 ± 0.14 | 830.24 ± 0.14 | 1293.6 ± 1.2 | 1252.7 ± 1.2 | 1212.2 ± 1.2 | 1171.9 ± 1.2
x2 = 0.9649 | 860.1 ± 0.13 | 850.75 ± 0.14 | 841.43 ± 0.14 | 832.09 ± 0.14 | 1299.9 ± 1.2 | 1258.4 ± 1.2 | 1217 ± 1.2 | 1175.9 ± 1.2
